Literature values in patent US20160095850A1, “METHODS AND COMPOSITIONS FOR TREATMENT OF HIV INFECTION” (COOPER HUMAN SYSTEMS LLC, priority 2013, published 2016).

Columns and labels:
HDAC8 = target: T1, HDAC8 (Homo sapiens, UniProt Q9BY41)
T1 sequence (Q9BY41 1-377): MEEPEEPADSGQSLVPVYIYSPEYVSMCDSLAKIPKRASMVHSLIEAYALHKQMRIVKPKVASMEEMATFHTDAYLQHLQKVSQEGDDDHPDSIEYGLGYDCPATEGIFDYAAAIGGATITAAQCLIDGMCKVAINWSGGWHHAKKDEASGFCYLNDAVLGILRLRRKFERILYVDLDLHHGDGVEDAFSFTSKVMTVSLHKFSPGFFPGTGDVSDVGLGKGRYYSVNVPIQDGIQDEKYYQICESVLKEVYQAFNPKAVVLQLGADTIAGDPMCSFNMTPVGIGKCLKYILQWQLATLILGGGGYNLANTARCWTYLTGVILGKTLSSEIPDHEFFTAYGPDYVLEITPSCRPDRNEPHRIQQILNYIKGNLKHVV

HDAC3 = HDAC3 (Homo sapiens, UniProt O15379)
[1] = human, in vivo
A549 cells = details: read-out: EC50, dose-dependent increase in acetylated histone levels
[2] = system: HDAC activity in HeLa extracts; details: read-out: IC50 for inhibition of HDAC activity
[3] = system: HIV-RNA in resting CD4 T cells; details: single dose of 400 mg
[4] = system: HIV RNA expression in CD4 T cells

HDAC3, sequence (O15379 whole entry): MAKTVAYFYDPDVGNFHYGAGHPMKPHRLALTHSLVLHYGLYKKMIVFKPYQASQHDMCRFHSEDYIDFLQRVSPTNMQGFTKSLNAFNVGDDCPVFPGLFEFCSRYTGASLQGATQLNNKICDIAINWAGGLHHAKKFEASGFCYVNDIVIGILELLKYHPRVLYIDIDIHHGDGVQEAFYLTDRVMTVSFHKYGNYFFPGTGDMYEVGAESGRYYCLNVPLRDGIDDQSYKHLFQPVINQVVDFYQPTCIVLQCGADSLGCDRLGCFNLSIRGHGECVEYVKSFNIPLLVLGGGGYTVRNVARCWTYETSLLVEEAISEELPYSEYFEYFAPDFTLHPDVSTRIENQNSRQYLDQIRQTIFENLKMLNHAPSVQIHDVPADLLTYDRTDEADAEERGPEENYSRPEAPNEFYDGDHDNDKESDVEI
HDAC3, sequence (Q9Y618 395-489 partner limits assumed): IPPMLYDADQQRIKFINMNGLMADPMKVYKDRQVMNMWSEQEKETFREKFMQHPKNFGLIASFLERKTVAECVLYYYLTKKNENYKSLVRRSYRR

For `Cc1cc(Cl)ccc1OCCCC(=O)NO` [Droxinostat], the IC50 (HDAC8) is listed as 1460 nM, the IC50 (HDAC3) is listed as 16.9 µM and the IC50 (other HDAC members) is listed as over 20 µM.
For `NCCCCN(Cc1nc2ccccc2[nH]1)[C@H]1CCCc2cccnc21` [AMD070], the “median estimated terminal half-life” value [1] is given as 7.6 to 12.6 h.
For `Nc1ccccc1NC(=O)CCCCCCC(=O)Nc1ccccc1` [BML-210], the EC50 (A549 cells) is listed as 36 µM and the IC50 [2] is listed as 80 µM.
For `O=C(CCCCCCC(=O)Nc1ccccc1)NO` [Vorinostat, suberoylanilide hydroxamic acid], the “evaluated subjects with significantly increased expression of HIV-RNA in isolated resting CD4 T cells” value [3] is listed as 8 of 8 and the “course of the induction of HIV RNA” value [4] is listed as “transient and diminished after 24 hours”.
In the case of `O=C(CCCCCCC(=O)NO)NO` [SBHA, Suberohydroxamic acid], the IC50 (HDAC3) is listed as 0.3 µM.
In the case of “IL-15: cytokine promoting activation and maintenance of NK and CD8 T effector memory cells”, the “expansion of CD8 T(EM) cells in the peripheral blood” value (CD8 T(EM) cells; 20 μg/kg/d by continuous intravenous infusion for 10 days) is listed as 100 fold and the “expansion of CD8 T(EM) cells” value (CD8 T(EM) cells; 20-40 μg/kg/d by subcutaneous injection) is listed as 10 fold.
